Results as given in patent publication US20260137698A1, “CYCLIN-DEPENDENT KINASE 7 INHIBITORS” (JOINT STOCK COMPANY «BIOCAD», priority 2022, published 2026).
Read-outs that look alike come from different tables or passages of the source.

Assays:
[1] = biological target: CDK13/Cyclin K (Homo sapiens, UniProt Q14004); experiment: Inhibition of CDK13/Cyclin K kinase activity (ADP-Glo); format: biochemical
Description: Measurements were carried out in a 5 μl reaction volume using a 384-well plate (Corning Inc., order no. 4513). The analyzed substances were titrated from 50 μM in increments of 4 at 11 concentration points in a normal strength kinase buffer A (Thermo Fisher Scientific Inc, cat. no. PV3189) supplemented with DTT (Sigma, orde. no. 646563-10X.5ML) and prepared with water (Panreac, order no. 701074). Kinase was diluted in an analogous buffer, mixed with test compounds in plate wells and preincubated for 10 minutes at 25° C. Following incubation, a mixture of reaction substrate (CDKtide (SignalChem, order no. C06-58) or Histone H1 (SignalChem, order no. H10-54N) or PDKtide (SignalChem, order no. P10-58) and ATP (SignalChem, order no. V915B) prepared on a normal strength kinase buffer A was added. 1% solution of dimethyl sulfoxide (DMSO) (Sigma-Aldrich, order no. D2438) in the reaction volume was used as a negative control. The final concentrations of all reaction components are shown in Table 5. The plate was centrifuged at 400 rcf (Eppendorf, 5804 R) for 1 minute and incubated for 40-60 minutes at 25° C. The amount of ATP consumed in the kinase reaction was then measured using the ADP-Glo™ detection system. Luminescence signal was measured using Spark 20M tablet multifunction reader (Tecan Group Ltd, Switzerland). IC50 value was calculated using Magellan 7.2 (Tecan Group Ltd, Switzerland) by approximating experimental points by four-parameter model with the optimization by Levenberg-Marquardt:
[formula] • where A is the upper asymptote; D is the lower asymptote; C is IC50, half-maximal inhibitory concentration of kinase, nM; B is the curvature (slope).

[2] = Microsomal stability in mouse liver microsomes (MLM); format: in vitro ADME; settings: mouse liver microsomes 0.5 mg/ml, 1 μM compound, NADPH
Description: The procedure for investigating the metabolism of selected compounds was carried out in microsomal fractions of the liver (of rats, mice, humans) in the presence of a phase I metabolism cofactor (NADPH).
The rate of enzymatic decomposition of the compound in liver microsomes in in vitro analysis was determined by keeping a reaction mixture comprising 0.5 mg/ml of pooled human, rat or mouse liver microsomes, 1 μM test compound, 1.5 mM […] (Carbosynth, UK, cat. no. NN108711101) and 1.5 mM magnesium chloride in 0.1 M sodium phosphate buffer (pH 7.4) in a solid-state thermostat at 37° C. (XenoTech, USA, order no. H2610, cat. no. R1000, cat. no. M1000). Incubation was carried out in three replicates.
To determine the stability of compounds under sample preparation conditions, an aliquot in two replicates with the test compound and a microsomal fraction devoid of the NADPH cofactor, which was incubated for 40 minutes at 37° C.
Reactions were stopped at 0, 10, 20, 30 and 40 min time points by way of adding an ice mixture of acetonitrile:methanol (3:1) comprising an internal standard.
Samples were then centrifuged to remove the precipitated protein, supernatants were analyzed using HPLC-MS/MS to determine in vitro clearance (CLint) of the compounds. The Agilent 6410 mass spectrometer (Agilent, USA) combined with the Agilent 1260 Infinity II HPLC liquid chromatograph (Agilent, USA) and a cooling autosampler controlled by MassHunter software (Agilent, USA) was used as an HPLC-MS/MS system. Chromatographic analysis was performed on a C18 reversed-phase HPLC column (Agilent, Waters or equivalent) in a gradient elution mode in a system of mobile phases: 0.1% formic acid in water/0.1% formic acid in acetonitrile, flow rate: 0.5 ml/min, column T=35° C. Mass spectrometric detection was performed with electrospray ionization in multiple reaction monitoring mode. Precursor ions, fragment ions and collision energies for each substance were selected experimentally.
A graph of dependence of the logarithmic ratio between substance's peak area and internal standard's peak area vs time was built. The dependent coefficient of this line corresponded to the elimination rate constant k, on the basis of which the in vitro clearance CLint was calculated:
Based on resulting in vitro clearance CLint values, the microsomal stability of the selected compounds for humans, rats and mice was concluded.

[3] = mean of multiple measurement series, ATP 10 μM, read-out: CDK13/Cyclin K IC50
[4] = mean value from several measurements, read-out: IC50 CDK13/Cyclin K

Chain of CDK13/Cyclin K (Q14004 whole entry): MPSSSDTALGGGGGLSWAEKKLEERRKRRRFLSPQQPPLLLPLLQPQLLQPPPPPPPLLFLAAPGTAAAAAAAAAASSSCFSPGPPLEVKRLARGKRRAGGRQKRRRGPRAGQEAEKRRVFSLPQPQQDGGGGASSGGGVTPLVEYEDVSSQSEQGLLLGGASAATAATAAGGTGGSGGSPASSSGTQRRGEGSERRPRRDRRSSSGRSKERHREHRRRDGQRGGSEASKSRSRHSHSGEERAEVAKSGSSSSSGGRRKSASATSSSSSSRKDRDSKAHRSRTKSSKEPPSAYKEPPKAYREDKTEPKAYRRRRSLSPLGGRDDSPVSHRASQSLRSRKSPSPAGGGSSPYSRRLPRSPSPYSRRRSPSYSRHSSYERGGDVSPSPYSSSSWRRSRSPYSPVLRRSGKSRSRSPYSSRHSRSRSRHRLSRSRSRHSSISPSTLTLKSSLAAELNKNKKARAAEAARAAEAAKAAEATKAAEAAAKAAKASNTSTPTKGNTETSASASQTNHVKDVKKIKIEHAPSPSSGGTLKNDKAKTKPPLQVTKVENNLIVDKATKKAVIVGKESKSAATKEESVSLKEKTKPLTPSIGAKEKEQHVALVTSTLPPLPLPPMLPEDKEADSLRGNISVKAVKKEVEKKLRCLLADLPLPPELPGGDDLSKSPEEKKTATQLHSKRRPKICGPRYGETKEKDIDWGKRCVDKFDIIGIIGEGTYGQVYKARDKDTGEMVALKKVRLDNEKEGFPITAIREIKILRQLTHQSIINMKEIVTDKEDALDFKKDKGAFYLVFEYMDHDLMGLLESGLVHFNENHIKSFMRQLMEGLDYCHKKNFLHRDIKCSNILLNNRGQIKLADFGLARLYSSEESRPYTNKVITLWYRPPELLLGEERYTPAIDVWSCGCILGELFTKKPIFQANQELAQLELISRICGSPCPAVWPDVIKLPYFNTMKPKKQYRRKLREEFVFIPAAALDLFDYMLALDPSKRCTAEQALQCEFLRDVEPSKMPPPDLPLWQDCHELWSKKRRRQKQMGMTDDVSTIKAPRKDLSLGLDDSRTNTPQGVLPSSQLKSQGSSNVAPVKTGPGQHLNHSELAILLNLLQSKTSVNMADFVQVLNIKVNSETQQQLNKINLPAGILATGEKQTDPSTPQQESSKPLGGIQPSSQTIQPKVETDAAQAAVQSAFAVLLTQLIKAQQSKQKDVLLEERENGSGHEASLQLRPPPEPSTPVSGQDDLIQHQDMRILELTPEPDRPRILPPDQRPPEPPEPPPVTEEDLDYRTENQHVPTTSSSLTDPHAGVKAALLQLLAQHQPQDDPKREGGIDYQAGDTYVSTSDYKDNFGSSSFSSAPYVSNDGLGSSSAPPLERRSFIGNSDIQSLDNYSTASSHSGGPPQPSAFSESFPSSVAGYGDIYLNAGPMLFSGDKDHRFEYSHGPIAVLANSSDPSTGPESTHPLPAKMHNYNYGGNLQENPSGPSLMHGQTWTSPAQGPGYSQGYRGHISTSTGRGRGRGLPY
Chain of CDK13/Cyclin K (O75909 whole entry partner): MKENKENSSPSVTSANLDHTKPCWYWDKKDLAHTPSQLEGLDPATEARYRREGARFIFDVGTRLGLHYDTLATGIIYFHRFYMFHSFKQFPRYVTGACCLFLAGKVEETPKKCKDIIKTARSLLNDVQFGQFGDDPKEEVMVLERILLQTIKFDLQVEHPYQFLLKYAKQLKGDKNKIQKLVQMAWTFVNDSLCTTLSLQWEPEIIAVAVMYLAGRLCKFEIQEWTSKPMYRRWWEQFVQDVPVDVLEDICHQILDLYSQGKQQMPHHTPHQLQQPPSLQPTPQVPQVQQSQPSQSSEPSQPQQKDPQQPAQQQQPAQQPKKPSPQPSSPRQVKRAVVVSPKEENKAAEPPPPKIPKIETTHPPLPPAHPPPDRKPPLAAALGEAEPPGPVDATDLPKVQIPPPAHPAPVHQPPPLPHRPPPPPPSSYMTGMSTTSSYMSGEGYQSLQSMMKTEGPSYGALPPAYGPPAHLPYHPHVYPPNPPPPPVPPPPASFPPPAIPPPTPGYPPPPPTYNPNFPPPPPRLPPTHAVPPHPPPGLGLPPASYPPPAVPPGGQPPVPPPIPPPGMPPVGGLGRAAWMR

IC50 [1, 3] [nM] | IC50 [1, 4] [nM] | MLM Clint [2] | SMILES
25 | 5 to 50 | – | Cn1cc(-n2ccc3c(-c4nc(N[C@H]5CCC(C)(C)NC5)ncc4C(F)(F)F)c[nH]c3c2=O)cn1 [CDK7_1123, 3-(2-{[(3S)-6,6-dimethylpiperidin-3-yl]amino}-5-(trifluoromethyl)py-rimidin-4-yl)-6-(1-methyl-1H-pyrazol-4-yl)-1H,6H,7H-pyrrolo[2,3-c]pyridin-7-one]
203 | > 200 | A (Clint < 20 μl/(min · mg of protein)) | CC1(C)CC[C@H](Nc2ncc(C(F)(F)F)c(-c3c[nH]c4c3CCCN(C3CC3)C4=O)n2)CN1 [CDK7_1225, 7-cyclopropyl-3-(2-{[(3S)-6,6-dimethylpiperidin-3-yl]amino}-5-(trifluoromethyl)py-rimidin-4-yl)-1H,4H,5H,6H,7H, 8H-pyrrolo[2,3-c]azepin-8-one]
20 | 5 to 50 | A (Clint < 20 μl/(min · mg of protein)) | CN1CCCc2c(-c3nc(N[C@H]4CCCNC4)ncc3C(F)(F)F)c[nH]c2C1=O [CDK7_953, 7-methyl-3-(2-{[(3S)-piperidin-3-yl]amino}-5-(trifluoromethyl)py-rimidin-4-yl)-1H,4H,5H,6H,7H, 8H-pyrrolo[2,3-c]azepin-8-one]
242 | > 200 | A (Clint < 20 μl/(min · mg of protein)) | CC(C)N1CCCc2c(-c3nc(N[C@H]4CCC(C)(C)NC4)ncc3C(F)(F)F)c[nH]c2C1=O [CDK7_1229, 3-(2-{[(3S)-6,6-dimethylpiperidin-3-yl]amino}-5-(trifluoromethyl)py-rimidin-4-yl)-7-(propan-2-yl)-1H,4H,5H,6H,7H, 8H-pyrrolo[2,3-c]azepin-8-one]
81 | 50 to 200 | A (Clint < 20 μl/(min · mg of protein)) | CN1CCCc2c(-c3nc(N[C@H]4CCC(C)(C)NC4)ncc3C(F)(F)F)c[nH]c2C1=O [CDK7_1187, 3-(2-{[(3S)-6,6-dimethylpiperidin-3-yl]amino}-5-(trifluoromethyl)py-rimidin-4-yl)-7-methyl-1H,4H,5H,6H,7H, 8H-pyrrolo[2,3-c]azepin-8-one]

SMILES | IC50 [1, 3] [nM] | IC50 [1, 4] [nM] | MLM Clint [2]
O=C1c2[nH]cc(-c3nc(N[C@H]4CCC5(CC5)NC4)ncc3C(F)(F)F)c2CCCN1C1CC1 [CDK7_1276, 3-(2-{[(6S)-4-azaspiro[2.5]octan-6-yl]amino}-5-(trifluoromethyl)py-rimidin-4-yl)-7-cyclopropyl-1H,4H,5H,6H,7H, 8H-pyrrolo[2,3-c]azepin-8-one] | 152 | 50 to 200 | B (50 μl/(min · mg of protein) > Clint > 20 μl/(min · mg of protein))
CC(C)N1CCCc2c(-c3nc(N[C@H]4CCC5(CC5)NC4)ncc3C(F)(F)F)c[nH]c2C1=O [CDK7_1277, 3-(2-{[(6S)-4-azaspiro[2.5]octan-6-yl]amino}-5-(trifluoromethyl)py-rimidin-4-yl)-7-(propan-2-yl)-1H,4H,5H,6H,7H, 8H-pyrrolo[2,3-c]azepin-8-one] | 425 | > 200 | B (50 μl/(min · mg of protein) > Clint > 20 μl/(min · mg of protein))
